Source: patent US20030064954A1, “Cationic amphiphilic 1,4-dihydropyridine derivatives useful for delivery of nucleotide containing compounds” (priority 2000, published 2003)

Columns and labels:
[1] = test system: CVI-P cells; experiment: Cytotoxicity of amphiphile/DNA complexes, percentage of survived cells
[2] = test system: plasmid DNA; experiment: DNA condensation/complexation, EtBr displacement assay; type: binding
Procedure, shortened: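 Plasmid DNA (0.6 μg/well) was mixed with 0.002% EtBr in 20 mM HEPES–150 mM NaCl pH 7.4, then cationic liposomes were added at various +/− charge ratios.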

[3] = test system: CV-1P (African monkey green kidney fibroblasts cells); experiment: In vitro transfection of plasmid DNA, β-galactosidase activity per well; type: cell-based; details: CVI-P
Procedure, shortened: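 CV-1P cells (20 000/well) given compound/DNA complexes at various charge ratios, prepared in 50 mM MES–50 mM HEPES–75 mM NaCl pH 7.2, 0.6 μg DNA/well, for 5 h at 37 °C, then 45 h in growth medium. Lysates assayed for β-galactosidase via oNPG hydrolysis at 405 nm against an E. coli enzyme standard; efficiency expressed as percent of Lipofectin.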

[4] = test system: D 407 cells; experiment: Cytotoxicity of amphiphile/DNA complexes, percentage of survived cells; type: cell-based, human; set-up: concentration or dose not given beside the values
[5] = test system: D407 (human retinal pigment epithelial) cells; experiment: In vitro transfection of plasmid DNA, β-galactosidase activity per well; type: cell-based; details: D 407
Procedure: Transfer of plasmid DNA by various compounds was investigated by using CV-1P (African monkey green kidney fibroblasts cells) and D407 (human retinal pigment epithelial) cells.
The cells were cultured in Dulbecco's modified Eagle's medium (DMEM, Gibco), supplemented with 10% fetal bovine serum (FBS), penicillin/streptomycin (100 units/ml and 100 μg/ml respectively) and 2 mM L-glutamine for D 407 cell line. Cell cultures were maintained at 37° C. in a 7% CO2/air incubator. The cells were collected, counted and seeded in growth medium (100 μl) into 96-well culture plate, 20 000 cells per well. One day later the medium was replaced with fresh medium without serum (150 μl)
The complexes at different derivative/DNA charge ratios for transfection procedure were prepared just before use in 50 mM MES—50 mM HEPES—75 mM NaCl buffer, pH 7.2 in separate 96 well plates. One hour after changing the serum-free medium with 10% serum the complexes were added to the cells at 370C. Dose of DNA per well was 0.6 μg. After 5 h the complexes were removed, the cells were washed with PBS, and the normal growth medium was added. After 45 h of incubation at 37° C. the cells were lysed with 2% Triton X 100, twice deep frozen and the β-galactosidase activity in each well was determined spectrofotometrically with ELx800 automated microplate reader (Bio-Tex Instruments Inc., Winooski, Vt. USA) by monitoring the hydrolysis of o-nitrophenylgalactopyranoside (oNPG) at 405 nm. Purified β-galactosidase from E.coli was used to construct a standard curve and to calculate 9-galactosidase activity in the transfected cells. […] Transfection efficiencies are given as percentage in comparison to transfection efficiency of Lipofectin^R.

[6] = amphiphile/DNA +/− charge ratio 0.5
[7] = amphiphile/DNA +/− charge ratio 1
[8] = amphiphile/DNA +/− charge ratio 2
[9] = amphiphile/DNA +/− charge ratio 4
[10] = amphiphile/DNA +/− charge ratio 8

Row | SMILES | cytotoxicity as a percentage of survived cells [1, 6] | cytotoxicity as a percentage of survived cells [1, 7] | cytotoxicity as a percentage of survived cells [1, 8] | cytotoxicity as a percentage of survived cells [1, 9] | cytotoxicity as a percentage of survived cells [1, 10] | complexation, percentage of the maximum fluorescence signal when EtBr bound to DNA in the absence of an amphiphile [2, 6] | complexation, percentage of the maximum fluorescence signal when EtBr bound to DNA in the absence of an amphiphile [2, 7] | complexation, percentage of the maximum fluorescence signal when EtBr bound to DNA in the absence of an amphiphile [2, 8] | complexation, percentage of the maximum fluorescence signal when EtBr bound to DNA in the absence of an amphiphile [2, 9] | complexation, percentage of the maximum fluorescence signal when EtBr bound to DNA in the absence of an amphiphile [2, 10] | transfection efficiency [3, 6] | transfection efficiency [3, 7] | transfection efficiency [3, 8] | transfection efficiency [3, 9] | transfection efficiency [3, 10] | melting point | cytotoxicity as a percentage of survived cells [4, 6] | cytotoxicity as a percentage of survived cells [4, 7] | cytotoxicity as a percentage of survived cells [4, 8] | cytotoxicity as a percentage of survived cells [4, 9] | other results
1 | CCCCCCCCCCCCCCCC(=O)OCCOC(=O)C1=C(C)NC(C)=C(C(=O)OCCOC(=O)CCCCCCCCCCCCCCC)C1c1ccc[n+](C)c1.I.[I-] [I, 1′,4′-Dihydro-1,2′,6′-trimethyl-3′,5′-bis[(2-palmitoyloxyethoxy)carbonyl]-3,4′-bipyridinium iodide] | 94,43% | 94,83% | 91,92% | 78,43% | 70,75% | 89,4% | 87,2% | 84,4% | 78,3% | 73,35% | 0,26 β-galactosidase units per well | 7,72 β-galactosidase units per well | 2,89 β-galactosidase units per well | 0,73 β-galactosidase units per well | 0,78 β-galactosidase units per well | 105 to 107 °C | 90,43% | 80,92% | 51,14% | 31,39% | cytotoxicity as a percentage of survived cells [4, 10]: 26,92%; transfection efficiency [5, 6]: 0,83 β-galactosidase units per well; transfection efficiency [5, 7]: 20,04 β-galactosidase units per well; transfection efficiency [5, 8]: 5,72 β-galactosidase units per well; transfection efficiency [5, 9]: 0,89 β-galactosidase units per well; transfection efficiency [5, 10]: 0,88 β-galactosidase units per well
2 | CCCCCCCCCCCCCCOC(=O)C1=C(C)NC(C)=C(C(=O)OCCCCCCCCCCCCCC)C1c1ccc[n+](C)c1.I.[I-] [VI, 1′,4′-Dihydro-1,2′,6′-trimethyl-3′,5′-bis(tetradecyloxycarbonyl)-3,4′-bipyridinium iodide] | 94,05% | 89,46% | 90,38% | 45,6% | 7,52% | 93,25% | 84,75% | 78,9% | 74,85% | 71,05% | 0,81 β-galactosidase units per well | 0,82 β-galactosidase units per well | 4,82 β-galactosidase units per well | 2,16 β-galactosidase units per well | 1,27 β-galactosidase units per well | 114 to 115 °C | 98,6% | 94,43% | 79,12% | 12,13% | cytotoxicity as a percentage of survived cells [4, 10]: 5,11%; transfection efficiency [5, 6]: 0,53 β-galactosidase units per well; transfection efficiency [5, 7]: 16,56 β-galactosidase units per well; transfection efficiency [5, 8]: 35,6 β-galactosidase units per well; transfection efficiency [5, 9]: 1,21 β-galactosidase units per well; transfection efficiency [5, 10]: 1,08 β-galactosidase units per well
3 | CCCCCCCCCCCCCCCCOC(=O)C1=C(C)NC(C)=C(C(=O)OCCCCCCCCCCCCCCCC)C1c1ccc[n+](C)c1.I.[I-] [VII, 3′,5′-Bis(hexadecyloxycarbonyl)-1′,4′-dihydro-1,2′,6′-trimethyl-3,4′-bipyridinium iodide] | 102,34% | 97,03% | 103,62% | 99,84% | 88,71% | 90,6% | 86,95% | 83,11% | 79,25% | 77,6% | 0,73 β-galactosidase units per well | 0,39 β-galactosidase units per well | 2,2 β-galactosidase units per well | 0,81 β-galactosidase units per well | 0,61 β-galactosidase units per well | 112 to 113 °C (dec.) | 95,82% | 84,83% | 62,61% | 55,53% | cytotoxicity as a percentage of survived cells [4, 10]: 51,38%; transfection efficiency [5, 7]: 0,82 β-galactosidase units per well; transfection efficiency [5, 8]: 1,37 β-galactosidase units per well; transfection efficiency [5, 9]: 0,98 β-galactosidase units per well; transfection efficiency [5, 10]: 0,63 β-galactosidase units per well
4 | CCCCCCCCCCCCCCCCOC(=O)C1=C(C)NC(C)=C(C(=O)OCCCCCCCCCCCCCCCC)C1c1ccc[n+](CC(N)=O)c1.I.[I-] [XX, 1-Carbamoylmethyl-3′,5′-bis(hexadecyloxycarbonyl)-1′,4′-dihydro-2′,6′-dimethyl-3,4′-bipyridinium iodide] | 100,59% | 110,76% | 59,96% | 71,98% | 92,09% | 88,0% | 81,94% | 76,4% | 71,5% | 66,31% |  |  |  |  |  | 140 to 141 °C (dec.) |  |  |  |  | transfection, result in words ([3]; entry spans the charge ratios 8-0.5): No signal
